Reference: patent US4124577A, “Nonapeptides and methods for their production” (Warner-Lambert, priority 1977, dated 1978)

System: LRF (luteinizing hormone releasing factor) induced luteinizing hormone (LH) release
Assay: In vitro LRF antagonist test in rat anterior pituitary cell cultures
Assay type: cell-based
Source text: Nonapeptides of this invention were screened for LRF antagonist activity in vitro using rat anterior pituitary cell cultures as described by Vale et. al. [Endocrinology, 91, 562 (1972)]. The inhibition of LRF (luteinizing hormone releasing factor) induced luteinizing hormone (LH) release into the culture medium is the endpoint in this in vitro bioassay.

Substance	LH released into culture medium (LRF alone, molar conc. 5×10^-10 (saline control 16.22))	LH released into culture medium (compound molar conc. 1×10^-7, LH released into culture medium, LRF control 5×10^-10)	% LH Release Inhibition (compound molar conc. 1×10^-7, LRF control 5×10^-10)	LH released into culture medium (compound molar conc. 1×10^-8, LH released into culture medium, LRF control 5×10^-10)	% LH Release Inhibition (compound molar conc. 1×10^-8, LRF control 5×10^-10)
LRF: luteinizing hormone releasing factor, formed in the hypothalamus, stimulates the secretion of luteinizing hormone from the anterior pituitary (QHWSYGLRPG; Gonadoliberin-1; UniProt P01148 24-33, looked up) [reference compound]	80.93 ng/mL	–	–	–	–
N^α -t-butoxycarbonyl-N^im -benzyl-L-histidyl-L-tryptophyl-O-benzyl-L-seryl-O-benzyl-L-tyrosyl-D-phenylalanyl-L-leucyl-N^G -[(4-methylphenyl)sulfonyl]-L-arginyl-L-prolyl-glycinamide	–	24.91 ng/mL	87%	52.47 ng/mL	44%
